Source: patent US20230062119A1, “USE OF BIOMARKERS IN IDENTIFYING PATIENTS THAT WILL BE RESPONSIVE TO TREATMENT WITH A PRMT5 INHIBITOR” (Merck Sharp & Dohme LLC, priority 2019, published 2023)
Like-named read-outs stand apart in the source and are kept apart here.

Target: T1, Full-length (FL)-PRMT5-MEP50 enzyme complex (Homo sapiens, UniProt O14744)
T1 construct: Full-length (FL)-PRMT5-MEP50 enzyme complex (recombinant proteins from baculovirus-transfected Sf21 cells: FL-PRMT5; MW=73837 kDa and FL-MEP50; MW=38614); made in house; host or cells: baculovirus-transfected Sf21 insect cells
Assay: PRMT5-MEP50 Enzyme Methylation Assay
Format: biochemical
Details: 1.0 nM PRMT5-MEP50, 75 nM biotinylated peptide, 15 μM SAM
How it was run: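 Compound was pre-incubated 60 min at 37°C with 1.0 nM enzyme and 15 μM SAM (final) in 50 mM Bicine pH 8.0, then 75 nM biotinylated H4R3(Me1) peptide was added and reacted 150 min; twenty-point 1:2 titration from 100000 nM, 1% DMSO. Formic acid quench; SAMDI mass spectrometry measured Me1-to-Me2 conversion, EC50 by 4- or 7-parameter regression.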

[1] = one EC50: 4 parameters single site sigmoidal model, EC50 1: first value of 7 parameters biphasic model, read-out: Enzyme Methylation Assay (EC50 or EC50 1)

T1 sequence (O14744 whole entry): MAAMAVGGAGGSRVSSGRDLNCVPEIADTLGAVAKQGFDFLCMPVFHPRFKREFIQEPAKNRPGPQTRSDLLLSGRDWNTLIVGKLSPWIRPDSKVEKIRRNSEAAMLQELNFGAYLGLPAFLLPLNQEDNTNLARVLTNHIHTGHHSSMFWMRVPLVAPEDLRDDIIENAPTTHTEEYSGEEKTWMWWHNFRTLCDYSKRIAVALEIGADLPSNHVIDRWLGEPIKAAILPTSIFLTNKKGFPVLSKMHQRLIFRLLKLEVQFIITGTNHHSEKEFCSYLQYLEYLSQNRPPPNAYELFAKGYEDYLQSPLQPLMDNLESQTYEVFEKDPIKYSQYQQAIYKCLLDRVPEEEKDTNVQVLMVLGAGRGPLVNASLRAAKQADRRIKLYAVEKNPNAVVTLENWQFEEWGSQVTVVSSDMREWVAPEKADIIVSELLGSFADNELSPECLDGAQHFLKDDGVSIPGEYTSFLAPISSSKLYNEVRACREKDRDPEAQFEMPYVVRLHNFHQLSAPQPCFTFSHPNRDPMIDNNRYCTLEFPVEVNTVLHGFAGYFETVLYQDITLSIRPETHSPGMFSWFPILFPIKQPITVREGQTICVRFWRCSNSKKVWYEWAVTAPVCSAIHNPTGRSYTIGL
T1 sequence (Q9BQA1 whole entry partner): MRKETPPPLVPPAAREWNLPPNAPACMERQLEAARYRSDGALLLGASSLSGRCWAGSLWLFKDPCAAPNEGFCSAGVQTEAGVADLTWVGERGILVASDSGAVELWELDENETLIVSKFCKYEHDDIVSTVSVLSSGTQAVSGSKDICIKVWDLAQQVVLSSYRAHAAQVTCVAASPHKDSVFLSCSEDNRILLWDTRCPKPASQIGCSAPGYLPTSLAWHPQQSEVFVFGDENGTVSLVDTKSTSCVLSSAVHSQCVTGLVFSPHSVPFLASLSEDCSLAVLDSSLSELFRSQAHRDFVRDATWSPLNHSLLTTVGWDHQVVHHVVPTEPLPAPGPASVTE

SMILES | EC50 [1] | EC50 (second EC50 of 7 parameters biphasic model, read-out: Enzyme Methylation Assay (EC50 2))
Cc1ncnc2c1ccn2[C@@H]1C[C@](C)(CCc2ccc3cc4c(nc3c2)NCC4)[C@@H](O)[C@H]1O [Example 110, (1S,2R,3S,5R)-3-(2-(2,3-dihydro-1H-pyrrolo[2,3-b]quinolin-7-yl)ethyl)-3-methyl-5-(4-methyl-7H-pyrrolo[2,3-d]pyrimidin-7-yl)cyclopentane-1,2-diol] | 0.9 nM | 
Nc1nc2cc(O[C@H]3CC[C@@]4(O)[C@@H]3O[C@@H](n3ccc5c(N)ncnc53)[C@@H]4O)ccc2cc1Br [Example 6, (2R,3R,3aS,6S,6aR)-6-((2-amino-3-bromoquinolin-7-yl)oxy)-2-(4-amino-7H-pyrrolo[2,3-d]pyrimidin-7-yl)hexahydro-2H-cyclopenta[b]furan-3,3a-diol] | 0.6 nM | 
Nc1nc2cc(C[C@@H]3CC[C@@]4(O)[C@@H]3O[C@@H](n3ccc5c(N)ncnc53)[C@@H]4O)ccc2cc1F [Example 124, (2R,3R,3aS,6S,6aR)-6-((2-amino-3-fluoroquinolin-7-yl)methyl)-2-(4-amino-7H-pyrrolo[2,3-d]pyrimidin-7-yl)hexahydro-3aH-cyclopenta[b]furan-3,3a-diol] | 0.3 nM | 
Cc1nc(N)c2ccn([C@@H]3O[C@@H]4[C@@H](Oc5ccc6cc(Br)c(N)nc6c5)CC[C@]4(O)[C@H]3O)c2n1 [Example 63, (2R,3R,3aS,6S,6aR)-2-(4-amino-2-methyl-7H-pyrrolo[2,3-d]pyrimidin-7-yl)-6-((2-amino-3-bromoquinolin-7-yl)oxy)hexahydro-3aH-cyclopenta[b]furan-3,3a-diol] | 0.4 nM | 
Nc1nc2cc(C[C@@H]3CC[C@@]4(O)[C@@H]3O[C@@H](n3ccc5c(N)nc(Cl)nc53)[C@@H]4O)ccc2cc1F [Example 48, (2R,3R,3aS,6S,6aR)-2-(4-amino-2-chloro-7H-pyrrolo[2,3-d]pyrimidin-7-yl)-6-[(2-amino-3-fluoroquinolin-7-yl)methyl]hexahydro-3aH-cyclopenta[b]furan-3,3a-diol] | 0.5 nM | 
Nc1nc2cc(C[C@H]3[C@H]4O[C@@H](n5ccc6c(N)ncnc65)[C@H](O)[C@@]4(O)C[C@@H]3F)ccc2cc1F [Example 54, (2R,3R,3aS,5S,6S,6aR)-6-[(2-amino-3-fluoroquinolin-7-yl)methyl]-2-(4-amino-7H-pyrrolo[2,3-d]pyrimidin-7-yl)-5-fluorohexahydro-3aH-cyclopenta[b]furan-3,3a-diol] | 0.3 nM | 
Nc1nc2cc(C[C@@H]3CC[C@@]4(O)[C@@H]3O[C@@H](n3ccc5c(N)ncnc53)[C@@H]4O)ccc2cc1C(F)F [Example 137, (2R,3R,3aS,6S,6aR)-6-((2-amino-3-(difluoromethyl)quinolin-7-yl)methyl)-2-(4-amino-7H-pyrrolo[2,3-d]pyrimidin-7-yl)hexahydro-2H-cyclopenta[b]furan-3,3a-diol] | 0.5 nM | 
Nc1nc2cc(O[C@H]3CC[C@@]4(O)[C@@H]3O[C@@H](n3ccc5cncnc53)[C@@H]4O)ccc2cc1Br [Example 85, (2R,3R,3aS,6S,6aR)-6-((2-amino-3-bromoquinolin-7-yl)oxy)-2-(7H-pyrrolo[2,3-d]pyrimidin-7-yl)hexahydro-3aH-cyclopenta[b]furan-3,3a-diol] | 1.2 nM | 246 nM
Nc1nc2cc(C[C@@H]3CC[C@@]4(O)[C@@H]3O[C@@H](n3ccc5c(C6CC6)ncnc53)[C@@H]4O)ccc2cc1Br [Example 87, (2R,3R,3aS,6S,6aR)-6-((2-amino-3-bromoquinolin-7-yl)methyl)-2-(4-cyclopropyl-7H-pyrrolo[2,3-d]pyrimidin-7-yl)hexahydro-3aH-cyclopenta[b]furan-3,3a-diol] | 0.5 nM | 
Cc1cn([C@@H]2C[C@@H]3[C@H](Cc4ccc5cc(Cl)c(N)nc5c4)CC[C@]3(O)[C@H]2O)c2ncnc(N)c12 [Example 39, (1S,2R,3aR,4S,6aR)-4-((2-amino-3-chloroquinolin-7-yl)methyl)-2-(4-amino-5-methyl-7H-pyrrolo[2,3-d]pyrimidin-7-yl)hexahydropentalene-1,6a(1H)-diol] | 0.3 nM | 
